{"source": "patent US10245273B2", "about": "“Oral pharmaceutical products and methods of use combining testosterone esters with hypolipidemic agents” (Clarus Therapeutics, Inc., priority 2013, dated 2019)", "origin": "cited, not measured here"}
{"smiles": "Cc1ccc(C)c(OCCCC(C)(C)C(=O)O)c1", "note": "[gemfibrozil]", "values": [{"measurement": "Subjects with a primary event", "setting": "600 mg twice daily for 5 years (placebo 21.7%)", "value": 17.3, "unit": "%"}, {"measurement": "Reduction in CHD events / relative risk reduction of primary outcome (nonfatal myocardial infarction or death of cardiac origin)", "setting": "600 mg twice daily, median follow-up 5.1 years, vs placebo", "value": 22, "unit": "%"}, {"measurement": "Increase in numbers of small HDL particles", "setting": "in vivo", "value": 21, "unit": "%"}, {"measurement": "Increase in total HDL particles", "setting": "in vivo", "value": 10, "unit": "%"}, {"measurement": "Relative risk reduction for combined cardiac events (nonfatal MI, death from coronary causes or stroke)", "setting": "vs placebo", "value": 24, "unit": "%"}]}
